Results taken from PubChem BioAssay (NCI).
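Method: 48-hour compound exposure of cells in 96-well plates, five concentrations, linear interpolation of endpoints. TGI denotes the concentration required for complete inhibition of growth.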

What was measured:
Assay in all cases: growth of human tumour cells (NCI), 48 h
[1] = test system: NCI-H226 lung
[2] = test system: RPMI-8226 leukemia
[3] = test system: SF-268 CNS
[4] = test system: UACC-257 melanoma
[5] = test system: K-562 leukemia
[6] = test system: 786-0 renal
[7] = test system: MCF7 breast
[8] = test system: NCI/ADR-RES ovarian
[9] = test system: SN12C renal
[10] = test system: UACC-62 melanoma
[11] = test system: CAKI-1 renal
[12] = test system: CCRF-CEM leukemia
[13] = test system: UO-31 renal
[14] = test system: MDA-N
[15] = test system: HCT-15 colon
[16] = test system: SK-MEL-5 melanoma
[17] = test system: OVCAR-4 ovarian
[18] = test system: LOX IMVI melanoma
[19] = test system: TK-10 renal
[20] = test system: SF-539 CNS
[21] = test system: PC-3 prostate
[22] = test system: COLO 205 colon
[23] = test system: MDA-MB-231 breast
[24] = test system: SK-MEL-2 melanoma
[25] = test system: SNB-75 CNS
[26] = test system: SW-620 colon
[27] = test system: MALME-3M melanoma
[28] = test system: HCC-2998 colon
[29] = test system: SNB-19 CNS
[30] = test system: ACHN renal
[31] = test system: MDA-MB-435
[32] = test system: OVCAR-8 ovarian
[33] = test system: NCI-H522 lung
[34] = test system: IGROV1 ovarian
[35] = test system: T-47D breast
[36] = test system: SK-OV-3 ovarian
[37] = test system: HCT-116 colon
[38] = test system: M14 melanoma
[39] = test system: OVCAR-5 ovarian
[40] = test system: NCI-H23 lung
[41] = test system: DU-145 prostate
[42] = test system: A549 NSCLC
[43] = test system: EKVX NSCLC
[44] = test system: HT29 colon
[45] = test system: RXF 393 renal
[46] = test system: SF-295 CNS
[47] = test system: KM12 colon
[48] = test system: OVCAR-3 ovarian
[49] = test system: HS 578T breast
[50] = test system: BT-549 breast
[51] = test system: HOP-92 NSCLC
[52] = test system: NCI-H460 lung
[53] = test system: SK-MEL-28 melanoma
[54] = test system: U251 CNS
[55] = test system: MOLT-4 leukemia
[56] = test system: A498 renal

O=c1cc(N2CCN(c3cc(=O)n4ccccc4n3)CC2)oc2ccccc12 gave a TGI [1] greater than 100 µM, a TGI [2] of 90.5 µM and a TGI [3] greater than 65.3 µM. For the same compound, the TGI [4] was greater than 71.8 µM, the TGI [5] was greater than 100 µM and the TGI [6] was greater than 100 µM. The TGI [7] was greater than 100 µM, the TGI [8] was greater than 100 µM and the TGI [9] was greater than 100 µM. The TGI [10] was greater than 100 µM, the TGI [11] was greater than 100 µM and the TGI [12] was greater than 100 µM. The TGI [13] was greater than 70.9 µM, the TGI [14] was greater than 100 µM and the TGI [15] was greater than 100 µM. The TGI [16] was greater than 100 µM, the TGI [17] was greater than 100 µM and the TGI [18] was greater than 100 µM. The TGI [19] was greater than 100 µM, the TGI [20] was greater than 100 µM and the TGI [21] was greater than 100 µM. For the same compound, the TGI [22] was greater than 100 µM, the TGI [23] was greater than 100 µM and the TGI [24] was greater than 100 µM. It also gave a TGI [25] greater than 54.3 µM, a TGI [26] greater than 100 µM and a TGI [27] greater than 100 µM. For the same compound, the TGI [28] was greater than 100 µM, the TGI [29] was greater than 100 µM and the TGI [30] was greater than 100 µM. The TGI [31] was greater than 100 µM, the TGI [32] was 96.9 µM and the TGI [33] was greater than 100 µM. It also gave a TGI [34] greater than 100 µM, a TGI [35] greater than 100 µM and a TGI [36] greater than 100 µM. For the same compound, the TGI [37] was greater than 100 µM, the TGI [38] was greater than 100 µM and the TGI [39] was greater than 100 µM. For the same compound, the TGI [40] was greater than 100 µM, the TGI [41] was greater than 100 µM and the TGI [42] was greater than 87.8 µM. It also gave a TGI [43] greater than 31.6 µM, a TGI [44] greater than 100 µM and a TGI [45] greater than 100 µM. For the same compound, the TGI [46] was greater than 100 µM, the TGI [47] was greater than 68.5 µM and the TGI [48] was greater than 100 µM. The TGI [49] was greater than 80.2 µM, the TGI [50] was greater than 100 µM and the TGI [51] was greater than 100 µM. For the same compound, the TGI [52] was greater than 100 µM, the TGI [53] was greater than 100 µM and the TGI [54] was greater than 100 µM. For the same compound, the TGI [55] was greater than 100 µM and the TGI [56] was greater than 100 µM.
